According to US6495699B2, “Metalloproteinase inhibitors, pharmaceutical compositions containing them, and their use” (Agouron Pharmaceuticals Inc., priority 1996, dated 2002):

Key:
[1] = molecular target: T1, catalytic domain of human stromelysin (Hsln) (Homo sapiens, UniProt P08254); assay: Fluorometric MCA-peptide hydrolysis assay, stromelysin (Hsln); type: biochemical; conditions: apparent Ki; 10 μM MCA peptide substrate, 37° C., pH 7.5; read-out: Hsln (Ki,app)
T1 construct: The catalytic domain of human stromelysin (Hsln) was obtained by expression and purification of a C-terminally truncated prostromelysin-1; made in house; host or cells: E. coli BL21
In short: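 APMA-activated E. coli–expressed catalytic domain, with 10 μM MCA-Pro-Leu-Gly-Leu-DPA-Ala-Arg-NH2 at 37 °C. Buffer was pH 7.5 Tricine with NaCl, CaCl2, zinc acetate and 2% final DMSO; fluorescence read at ex 328/em 393 nm over 60 min. Ki,app from steady-state rates fitted to competitive or Morrison tight-binding equations.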

[2] = Determination of inhibitor concentration in plasma after oral dosing; type: in vivo, Sprague Dawley rats; conditions: Sprague-Dawley, rat plasma, dose 50 mg/kg, vehicle B (60% aq. propylene glycol)
Description: The dosing solution consisted of the inhibitor dissolved in either a molar equivalent of HCl in water (vehicle A), in 60% aq. propylene glycol (vehicle B), or in 2.8 mg/mL sodium bicarbonate in 60% aqueous propylene glycol (vehicle C), yielding a final concentration that ranged from 10-15 mg/ml. Sprague Dawley rats (Hilltop Lab Animals, Scottsdale, Pa.) were dosed as a function of drug weight per body weight, usually 50 mgper kg. Blood was taken from the rats and centrifuged, and the plasma was stored in the freezer. Drug was extracted from a 50 μl plasma aliquot by adding 1 ml of acetonitrile, shaking for 2 minutes, centrifuging for 15 minutes at 4000 rpm, collecting the supernatant, and then evaporating it to dryness under a stream of nitrogen. The samples were reconstituted with 130 μl of mobile phase, shook for 2 minutes, and centrifuged for 15 minutes at 4000 rpm. The supernatant was collected and the samples were analyzed by injecting 100 μl of supernatant onto HPLC.
Quantitation of drug levels was accomplished by generating a standard curve of known drug amounts that were extracted from added plasma. Drug levels were plotted as a function of time and analyzed to provide area under the curve (AUC) and maximum concentration (Cmax) values.

[3] = molecular target: T2, human progelatinase A (GelA), catalytic and fibronectin-like portion (Homo sapiens, UniProt P08253); assay: Fluorometric MCA-peptide hydrolysis assay, gelatinase A (GelA); type: biochemical; conditions: apparent Ki; 10 μM MCA peptide substrate, 37° C., pH 7.5
T2 construct: The catalytic and fibronectin-like portion of human progelatinase A (GelA) was expressed as a fusion protein with ubiquitin; ubiquitin; made in house; host or cells: E. coli
In short: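 E. coli-expressed ubiquitin fusion of human proGelA catalytic plus fibronectin-like domains, autoactivated; 10 μM MCA-Pro-Leu-Gly-Leu-DPA-Ala-Arg-NH2, pH 7.5 Tricine/NaCl/CaCl2/Zn buffer, 2% DMSO, 37° C, 60 min. Fluorescence 328/393 nm; steady-state rates fitted to competitive inhibition or Morrison tight-binding equation giving Ki,app (≈Ki since [S]<<Km).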

[4] = molecular target: T3, fibroblast collagenase-1 catalytic domain (HFC) (Homo sapiens, UniProt P03956); assay: Fluorometric MCA-peptide hydrolysis assay, fibroblast collagenase-1 (HFC); type: biochemical; conditions: apparent Ki; 10 μM MCA peptide substrate, 37° C., pH 7.5; read-out: HFC (Ki,app)
T3 construct: The catalytic domain of human collagenase-1 was expressed as a fusion protein with ubiquitin in E. coli; ubiquitin (cleaved yes); made in house; host or cells: E. coli
T3 sequence (P03956 100-269 limits assumed): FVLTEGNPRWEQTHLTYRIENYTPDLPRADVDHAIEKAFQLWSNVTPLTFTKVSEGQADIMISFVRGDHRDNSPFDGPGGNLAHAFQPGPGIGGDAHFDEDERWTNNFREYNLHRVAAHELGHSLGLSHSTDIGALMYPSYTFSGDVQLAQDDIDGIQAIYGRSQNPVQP
In short: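 Human collagenase-1 catalytic domain, expressed in E. coli as ubiquitin fusion, was assayed with 10 μM MCA-Pro-Leu-Gly-Leu-DPA-Ala-Arg-NH2 at 37 °C in Tricine pH 7.5, 2% DMSO, over 60 min (ex 328/em 393 nm). Ki,app came from steady-state rates fitted to competitive or Morrison tight-binding equations.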

T1 sequence (P08254 100-272 limits assumed): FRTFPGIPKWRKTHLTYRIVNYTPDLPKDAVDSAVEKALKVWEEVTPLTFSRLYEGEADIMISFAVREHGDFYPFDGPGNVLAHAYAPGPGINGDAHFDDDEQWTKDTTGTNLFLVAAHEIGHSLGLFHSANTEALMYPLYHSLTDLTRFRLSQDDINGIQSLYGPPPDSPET
T2 sequence (P08253 110-465 limits assumed): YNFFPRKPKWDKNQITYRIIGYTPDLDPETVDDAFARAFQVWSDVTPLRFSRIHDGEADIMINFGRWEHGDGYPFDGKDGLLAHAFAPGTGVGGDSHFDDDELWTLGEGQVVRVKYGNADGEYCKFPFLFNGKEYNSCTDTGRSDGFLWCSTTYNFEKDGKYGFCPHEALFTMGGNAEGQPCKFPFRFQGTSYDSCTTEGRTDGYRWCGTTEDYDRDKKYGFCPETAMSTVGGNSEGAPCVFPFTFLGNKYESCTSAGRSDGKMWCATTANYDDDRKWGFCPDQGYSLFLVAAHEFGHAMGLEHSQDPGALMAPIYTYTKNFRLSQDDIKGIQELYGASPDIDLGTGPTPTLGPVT

With `CNC(=O)[C@@H](NC(=O)[C@@H](CC(=O)O)n1ccc(-c2ccc(-c3ccc(C#N)cc3)cc2)c1)C(C)(C)C` [Example 5(c), 3(R)-[3-(4′-Cyanobiphenyl-4-yl)-1H-pyrrol-1-yl]-N-[2,2-dimethyl-1(S)-(methylcarbamoyl)propyl]succinamic Acid] the Ki [1] was 1.5 nM, the melting point was 142 to 144 °C and the AUC [2] was 1220 ng·h/mL. It also gave a Cmax [2] of 410 ng/mL, a GelA (Ki,app) [3] of 0.041 nM and a Ki [4] of 1500 nM.
